Measurements taken from patent US20080279856A1, “Inhibition of Bradykinin Release” (Novo Nordisk Pharmaceuticals, Inc., priority 1999, published 2008).
Substitutions are numbered along the chain they refer to.

Columns and labels:
[1] = after cardiac operations; cited from earlier work
[2] = 3H-LPS binding to HBP, scintillation proximity assay; conditions: up to 50 mM unlabeled BPTI
Description: The affinity for lipopolysaccharide (3H-LPS) is measured by scintillation proximity assay technology (SPA) as described (Linde, V., Bjørn, S., Kastrup, J. S., and Flodgaard, H., 2000, Biotechniques 28:218-222). All samples are repeated in triplicates.

[3] = system: kallikrein-C1-inhibitor and C1-C1-inhibitor complexes; conditions: cited from earlier work
HBP = biological target: T1, HBP (Homo sapiens, UniProt P20160); conditions: cited from earlier work
T1 sequence (P20160 27-248): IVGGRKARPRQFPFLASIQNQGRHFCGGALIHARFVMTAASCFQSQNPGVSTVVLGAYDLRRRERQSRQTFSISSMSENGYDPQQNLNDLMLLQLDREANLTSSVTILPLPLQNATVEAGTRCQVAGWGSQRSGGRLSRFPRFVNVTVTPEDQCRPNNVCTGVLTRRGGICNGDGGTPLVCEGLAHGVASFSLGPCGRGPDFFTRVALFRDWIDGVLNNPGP

[4] = system: bradykinin-induced increase in EC permeability; experiment: Inhibition of bradykinin-induced increase in EC permeability; type: cell-based, human, bovine; conditions: aprotinin 100 μg/ml; subsequent bradykinin 100 nM
Description: (§1) For measurement of electrical resistance across the EC monolayer, the filter insert is transferred to a resistance measurement chamber (ENDOHM-12; World Precision Instruments, Sarasota, Fla., USA) modified so as to assure exact positioning of the electrodes in relation to each other and to the filter insert during repeated measurements. The chamber (lower compartment) and the filter insert (upper compartment) are filled with 2 ml and 400 μl culture medium, respectively. All measurements are made at 37° C. with the equipment placed in a cell culture incubator. Direct readings of the electrical resistance are given by an ohmmeter (EVOM; World Precision Instruments, Sarasota, Fla., USA) connected to the electrodes of the resistance chamber. The electrical resistance of individual EC monolayers is obtained by subtracting the resistance of the corresponding naked filter coated with Biomatrix as measured prior to seeding of the endothelial cells.
Before transferring the filter inserts to the resistance measurement chamber (kept at 37° C.), the medium in the insert and in the chamber is replaced with fresh culture medium (37° C.) supplemented with 10 mM Hepes. HBP (25-100 μg/ml) or PMN secretion product is added either to the upper or the lower compartment and change in transendothelial electrical resistance is measured every minute until a plateau phase is reached, and thereafter at 5-min intervals. In separate experiments, PMNs (2×10^6) preincubated with mAb IB4 (10 μg/ml) are added to the upper compartment (PMN:EC ratio=10:1) and allowed to sediment for 10 min. Activation of the PMNs is induced through antibody crosslinking of leukocytic CD18 by addition of goat anti-mouse IgG F(ab′)2 diluted 1:20. In experiments where albumin permeability across the EC monolayer is studied, the medium in the insert contained EBA. During the experiment, the filter insert is moved at 5-10 min intervals to new wells containing fresh medium. All incubations are made at 37° C. After the experiment, the medium in the lower wells is aspirated and analyzed for EBA content.

vascular permeability = conditions: cited from earlier work
endothelial cell = conditions: hypoxic cold storage in organ preservation solutions; cited from earlier work
[5] = system: HBP-induced increase in EC permeability; experiment: Inhibition of HBP-induced increase in EC permeability; type: cell-based, human, bovine; conditions: aprotinin 100 μg/ml, 30 min pre-incubation; HBP 75 μg/ml; N=6
Text: Alternatively, HBP antagonists may be detected by culturing endothelial cells in the presence of HBP and in the presence and absence of a substance suspected of being an antagonist. In a specific embodiment, the antagonist is a monoclonal antibody that binds to at least one epitope of HBP, preferably human HBP, wherein said epitope binds to prekallikrein-H-kininogen complex and activates release of bradykinin. In a preferred embodiment, the monoclonal antibody is a human monoclonal antibody. In one embodiment, the antibody and HBP are preincubated together before incubating with endothelial cells for about 10 minutes at 37° C. The effect of the substance on the permeability of endothelial cells is determined by measuring transendothelial electrical resistance or determining albumin clearance as described in the Examples, infra. A decrease in permeability would indicate that the substance does act as an HBP antagonist.
as §1, with “All measurements are made at 37° C. with the equipment placed in a cell culture incubator.” left out
Evans blue dye-conjugated albumin (EBA) is used as a marker for macromolecular permeability of the EC monolayers. […] In experiments where albumin permeability is analyzed, the culture medium in the upper compartment is exchanged for medium containing EBA. […]

HBP mutant (G175N) = biological target: T2, HBP mutant (G175N) (Homo sapiens, UniProt P20160, G201N); experiment: Aprotinin effect on leakage induced by HBP mutant (G175N); type: cell-based; conditions: leakage model
T2 sequence (P20160 27-248 G201N): T1 sequence (P20160 27-248) with G175N

competition for 3H-LPS binding to native HBP [2]: no inhibitory effects
effect of aprotinin on mutant-induced leakage (HBP mutant (G175N)): no inhibitory effect
Substance: aprotinin
blood loss [1]: reduces blood loss
postoperative bleeding time [1]: decreases the elevated postoperative bleeding time
kallikrein-C1-inhibitor and C1-C1-inhibitor complexes [3]: decrease
Kd (HBP): 100 nM
effect on bradykinin-induced permeability change [4]: but not the permeability change induced by subsequent administration of bradykinin
vascular permeability and neutrophil count (vascular permeability): decreased this vascular permeability and neutrophil count
endothelial cell viability (endothelial cell): increases endothelial cell viability
effect on HBP-induced increase in EC permeability [5]: largely prevented
